Data reported in patent publication US11021444B2, “Antiviral compounds” (priority 2013, dated 2021).
Like-named read-outs stand apart in the source and are kept apart here.

Assays:
RSV replicon = experiment: microbe, parasite or virus in culture; assay type: cell-based; conditions: human respiratory syncytial virus, read-out: EC50, the concentration of the drug required for reducing RSV replicon RNA by 50%
HEp-2 cells = experiment: Cytotoxicity Determination (CCK-8, without addition of virus); assay type: cell-based
Method in brief: (§1)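 Cytotoxicity was measured by CCK-8 after 3-4 hours at 37 °C, following 5 days of uninfected exposure at 37 °C and 5% CO2. Compounds ran as duplicate 7-point 1/2 dilutions starting at 100 μM, with 1% final DMSO. HEp-2 cells had been plated at 1,500/well the day before.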

[1] = tested on: Respiratory Syncytial Virus (RSV) long strain; experiment: microbe, parasite or virus in culture; assay type: cell-based; conditions: human respiratory syncytial virus, Tables A and B list compounds by EC50 band
Method in brief: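 CPE-reduction format: viability measured colorimetrically with CCK-8 (450 nm, 630 nm reference) after 3-4 h, following 5-day infection at 37 °C, 5% CO2. Cells were HEp-2; inoculum 100 TCID50/well; duplicate 9-point 1/3 series starting at 100 μM or 1 μM.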

recombinant RSV complex = recombinant RSV complex (Human respiratory syncytial virus A, UniProt P28887); experiment: RSV Polymerase Inhibition Assay; assay type: biochemical
Method in brief: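 Inhibition measured as reduced incorporation of radiolabel into RNA products, detected by scintillation counting. Reactions: recombinant RSV complex (10 nM), RNA oligonucleotides, Tris-HCl pH 7.5, 6 mM MgCl2, inhibitor titration, 2 h at 30 °C, EDTA stop.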

[2] = Cytotoxicity Determination (CCK-8, without addition of virus); assay type: cell-based; conditions: human, 50% cytotoxicity concentration (CC50)
Method in brief: as §1

[3] = HEp-2, 120 h, read-out: 50% effective concentration (EC50), HEp-2 cells infected with RSV long strain, 5 days, CCK-8 readout
[4] = 120 h, read-out: 50% effective concentration (EC50), HEp-2 cells infected with RSV long strain, 5 days, CCK-8 readout

recombinant RSV complex, sequence (P28887 whole entry): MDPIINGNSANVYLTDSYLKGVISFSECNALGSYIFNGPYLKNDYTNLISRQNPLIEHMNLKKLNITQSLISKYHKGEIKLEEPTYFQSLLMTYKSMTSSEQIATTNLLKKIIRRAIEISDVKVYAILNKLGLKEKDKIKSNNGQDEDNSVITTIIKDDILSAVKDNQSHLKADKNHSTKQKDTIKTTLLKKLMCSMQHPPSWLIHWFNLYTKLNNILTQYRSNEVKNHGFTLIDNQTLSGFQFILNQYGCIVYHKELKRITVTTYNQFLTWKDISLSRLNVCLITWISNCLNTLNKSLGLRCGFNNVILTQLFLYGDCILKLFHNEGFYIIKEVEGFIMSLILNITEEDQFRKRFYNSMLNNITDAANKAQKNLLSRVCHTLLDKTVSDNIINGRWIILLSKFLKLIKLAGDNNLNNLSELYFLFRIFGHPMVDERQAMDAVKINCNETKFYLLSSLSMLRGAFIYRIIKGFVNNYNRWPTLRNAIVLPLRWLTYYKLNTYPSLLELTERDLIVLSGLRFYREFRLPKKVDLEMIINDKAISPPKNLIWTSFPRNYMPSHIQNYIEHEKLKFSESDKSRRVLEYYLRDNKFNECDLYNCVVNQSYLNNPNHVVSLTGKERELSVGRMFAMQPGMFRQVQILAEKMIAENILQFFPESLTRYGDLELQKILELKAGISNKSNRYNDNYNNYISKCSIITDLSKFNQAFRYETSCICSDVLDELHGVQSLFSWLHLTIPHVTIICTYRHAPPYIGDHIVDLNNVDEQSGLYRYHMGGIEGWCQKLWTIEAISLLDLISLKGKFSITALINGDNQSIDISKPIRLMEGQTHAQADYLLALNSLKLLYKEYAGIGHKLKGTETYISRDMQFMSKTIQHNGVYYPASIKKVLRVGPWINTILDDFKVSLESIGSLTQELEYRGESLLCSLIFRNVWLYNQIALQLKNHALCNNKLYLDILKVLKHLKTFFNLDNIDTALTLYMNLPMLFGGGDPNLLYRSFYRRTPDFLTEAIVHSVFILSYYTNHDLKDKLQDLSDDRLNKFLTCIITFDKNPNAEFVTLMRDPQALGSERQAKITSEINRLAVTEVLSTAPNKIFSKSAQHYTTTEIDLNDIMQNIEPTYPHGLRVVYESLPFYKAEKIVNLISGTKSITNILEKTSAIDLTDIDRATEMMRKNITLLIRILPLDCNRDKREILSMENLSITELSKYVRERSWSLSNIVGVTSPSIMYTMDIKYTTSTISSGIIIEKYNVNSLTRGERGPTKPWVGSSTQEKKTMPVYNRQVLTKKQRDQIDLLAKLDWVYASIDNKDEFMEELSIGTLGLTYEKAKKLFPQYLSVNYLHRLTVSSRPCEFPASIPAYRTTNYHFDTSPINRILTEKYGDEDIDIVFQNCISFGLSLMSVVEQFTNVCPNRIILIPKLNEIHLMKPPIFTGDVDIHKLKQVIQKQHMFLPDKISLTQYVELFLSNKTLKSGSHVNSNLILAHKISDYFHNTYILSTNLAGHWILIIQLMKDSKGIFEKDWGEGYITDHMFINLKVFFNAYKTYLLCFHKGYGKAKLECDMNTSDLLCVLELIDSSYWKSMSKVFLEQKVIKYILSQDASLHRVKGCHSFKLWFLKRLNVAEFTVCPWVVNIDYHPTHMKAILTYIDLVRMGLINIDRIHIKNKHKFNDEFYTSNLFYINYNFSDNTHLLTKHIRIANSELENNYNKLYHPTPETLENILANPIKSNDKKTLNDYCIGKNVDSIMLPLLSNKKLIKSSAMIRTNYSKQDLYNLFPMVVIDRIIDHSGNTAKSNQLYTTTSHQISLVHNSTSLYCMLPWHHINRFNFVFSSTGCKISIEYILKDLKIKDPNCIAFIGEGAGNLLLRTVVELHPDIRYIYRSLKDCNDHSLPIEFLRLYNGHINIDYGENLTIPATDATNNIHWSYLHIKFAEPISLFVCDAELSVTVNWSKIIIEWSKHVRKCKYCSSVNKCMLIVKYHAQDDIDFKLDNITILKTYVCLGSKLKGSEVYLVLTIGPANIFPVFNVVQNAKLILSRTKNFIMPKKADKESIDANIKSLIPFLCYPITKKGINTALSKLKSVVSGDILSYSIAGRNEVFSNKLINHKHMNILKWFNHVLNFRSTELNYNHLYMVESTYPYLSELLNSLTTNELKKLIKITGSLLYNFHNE
recombinant RSV complex, sequence (P03421 whole entry, further chain): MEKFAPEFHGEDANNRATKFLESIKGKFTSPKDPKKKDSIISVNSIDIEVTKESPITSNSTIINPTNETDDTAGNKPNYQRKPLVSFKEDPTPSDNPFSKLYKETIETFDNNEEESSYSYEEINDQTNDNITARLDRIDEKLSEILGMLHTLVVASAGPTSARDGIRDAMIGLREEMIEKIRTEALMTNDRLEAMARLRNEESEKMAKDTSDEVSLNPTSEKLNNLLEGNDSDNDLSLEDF

Compound | EC50 (RSV replicon) [µM] | CC50 (HEp-2 cells; human, 5 days) [µM] | EC50 [1, 3] [µM] | CC50 (HEp-2 cells) [µM] | IC50 (recombinant RSV complex) [µM] | CC50 at 5 days [2] [µM] | EC50 [1, 4] [µM]
COc1cc(C(=O)NCC(O)(c2ccc(OC)c(-c3ccc(F)c(Cl)c3)n2)C(F)(F)F)ccc1OCC(N)=O (single isomer, unassigned) [Compound 239] | < 1 | 10 to 100 |  |  |  |  | 
COc1cc(C(=O)NCC(O)(c2ccc(OC)c(-c3ccc(F)c(Cl)c3)n2)C(F)F)ccc1OCC(N)=O (centres unmarked) [Compound 447] |  | > 100 |  |  |  |  | 
COc1cc(C(=O)NCC(O)(c2cc(C(C)(N)CF)cc(-c3ccc(F)cc3)n2)C(F)(F)F)ccc1OCC(N)=O (single isomer, unassigned) [Compound 656] |  | 10 to 100 | < 1 |  |  |  | 
COc1ccc(C(O)(CNC(=O)c2ccc(O[C@H]3CCNC3=O)c(Cl)c2)C(F)(F)F)cc1-c1ccc(F)c(Cl)c1 (some centres unmarked) [Compound 260] |  |  |  | 10 to 100 |  |  | 
COc1cc(C(=O)NCC(O)(c2ccc(OC)c(-c3ccc(F)c(Cl)c3)n2)C(F)F)ccc1OCC(N)=O (centres unmarked) [Compound 442] | < 1 | 10 to 100 | < 1 |  | < 1 |  | 
COc1cc(C(=O)NCC(O)(c2cc(C(C)(N)CF)cc(-c3ccc(F)cc3)n2)C(F)(F)F)ccc1OCC(N)=O (single isomer, unassigned) [Compound 655] |  | > 100 |  |  | < 1 |  | 
COc1cc(C(=O)NCC(O)(c2ccc(OC)c(-c3ccc(F)c(Cl)c3)n2)C2CC2)ccc1OCCO (centres unmarked) [Compound 243] |  | 10 to 100 |  |  |  |  | 
CCC(O)(CNC(=O)c1ccc(OCCF)c(OC)c1)c1ccc(OC)c(-c2ccc(F)c(Cl)c2)n1 (single isomer, unassigned) [Compound 122b] |  | 10 to 100 |  |  | < 10 |  | 
CC(C)(N)c1cc(-c2ccc(F)cc2)nc(C(O)(CNC(=O)c2ccc3c(c2)CC(=O)N3)C(F)(F)F)c1 (centres unmarked) [Compound 571] | < 1 |  | < 1 |  | < 1 | 10 to 100 | 
CC(C)(N)c1cc(-c2ccc(F)cc2)nc(C(O)(CNC(=O)c2ccc(OC3CC3)c(CO)c2)C(F)(F)F)c1 (centres unmarked) [Compound 644] | < 1 |  | < 1 |  | < 1 | 10 to 100 | 
COc1cc(C(=O)NCC(O)(c2cc3c(c(-c4ccc(F)c(Cl)c4)n2)OCC3(C)C)C2CC2)cc2cccnc12 (centres unmarked) [Compound 224] | < 1 |  | < 1 |  | < 1 | 10 to 100 | 
COc1cc(C(=O)NCC(C)(O)c2ccc(OC)c(-c3ccc(F)c(Cl)c3)n2)ccc1OC(C)(C)C (centres unmarked) [Compound 371] | < 1 |  | < 1 |  | < 1 | 10 to 100 | 
COc1cc(C(=O)NC[C@@](O)(c2cc3c(c(-c4ccc(F)cc4)n2)OC[C@@]3(C)N)C(F)(F)F)ccc1OC[C@@H](C)O [Compound 630] | < 1 |  |  |  | < 1 | 10 to 100 | < 1
COc1cc(C(=O)NCC(O)(c2cc(C(N)CO)cc(-c3ccc(F)cc3)n2)C(F)(F)F)ccc1OC1CC1 (centres unmarked) [Compound 529] | < 1 |  | < 1 |  | < 1 | 10 to 100 | 
COc1cc(C(=O)NCC(O)(c2ccc(OC)c(-c3ccc(F)c(Cl)c3)n2)C(C)(C)C)ccc1OCCF (centres unmarked) [Compound 313] | 1 to 50 |  | 1 to 50 |  | < 10 | 10 to 100 | 
COc1cc(C(=O)NCC(O)(c2cc(C(C)(C)N(C)C)cc(-c3ccc(F)c(Cl)c3)n2)C(F)(F)F)ccc1OC1CC1 (centres unmarked) [Compound 400] | < 1 |  |  |  | < 1 | 10 to 100 | < 1
